Data taken from ChEMBL document CHEMBL5385978, “Discovery of novel SOS1 inhibitors using machine learning” (RSC Med Chem, 2024).

Test system: SOS1-KRAS (Homo sapiens), Q07889+P01116 [G12C]
Test: Inhibition of his tagged SOS1/GST-tagged KRAS G12C mutant (unknown origin) protein-protein interaction at 25 ug/ml incubated for 2 hrs by HTRF assay relative to control
Format: protein-complex assay
Conditions: dose 25.0 µg/ml

inhibition [%]	Compound
2.1	CC(C)CCN1CCCN(c2nc(Cc3ccccc3)nc3c2ncn3-c2ccccc2)CC1
6.3	CC(C)OCCCNC1CCN(c2ncc(NC(=O)c3ccccc3)cc2C(=O)O)CC1
